Data on 2 compounds can be found in patent EP2229935A1, “Peptide derivatives or pharmaceutically acceptable salts thereof, method for producing the same, use of said derivatives and pharmaceutical composition” (Nebolsin, Vladimir Evgenievich, priority 1997, dated 1999).

Several values for one entry are separate records, joined by “and”; a condition that tells them apart may be missing. Equal values may be shown once. Marks after values point to notes of the source that are not given here.

Assay [1] relates to mongrel male mice. Description: Delayed hypersensitivity induced by picryl chloride (TCB), local ointment. The format is in vivo. The protocol: Effect study of the compounds on the delayed type hypersensitivity reaction induced in mice by 2.4.6-trichlorobenzol (TCB) was carried out according to the method of Tarayre et al. [Tarayre J.P., Barbara M., Aliaga M., Tisne-Versilles. Comparative actions of immunosuppressants, glucocorticoids and non-steroidal antiinflammatory drugs on various models of delayed hypersensitivity and on a non-immune inflammation in mice. Arzneim.-Forsch. Drug Res. (1990), Vol. 40, pip.1125-1131].
Studies were conducted on mongrel male mice with initial body mass 30-35 g. Each group included 10 animals. Mice were sensitized with 0.1 ml 3% TCB solution in acetone application on a shaved abdominal area. In 7 days, the anaphylaxis-provoking TCB dose (0.025 ml of 3% solution) was applied on both surfaces of the right ear. In 30 minutes 0.05 ml of the test ointment were rubbed into the same surfaces. 24 hours after edema induction, mice were sacrified, ears were cut off and weighed. Allergic reaction intensity was assessed by change in weight in grams of the right ear (the test one) in relation to the left ear (the control ear).
Allergic reaction inhibition expressed in percent was calculated according to the formula: 100-[(R-L(exper.))/(L):(R-L(control))/(L)x100](%) [formula] where R - the right ear weight, L - the left ear weight.
The test compounds were applied on the ear in the form of 1% and 5% ointment the base of which were 10% methylcellulose solution and propylene glycol at 1:1 ratio.
Groups of animals: • Group 1 - control, ointment base without active substance was applied on the ear of animals. • Group 2 - ointment base comprising 1% compound III was applied on the ear of animals. • Group 3 - ointment base comprising 1% compound XVII was applied on the ear of animals. • Group 4 - ointment base comprising 5% compound XLVIII was applied on the ear of animals.

The subject of assay [2] is [C^14]-arachidonic acid. Description: Metabolism of [C^14]-arachidonic acid in pulmonary tissue homogenate of treated mice. The format is in vivo, CBA male mice. The conditions noted are these: CBA mice lung homogenate; 50 µg/kg for three days. The protocol:
Studies were carried out on CBA male mice fed a standard vivarium ration. […] Then animals were sacrified, their lungs were taken out, frozen in liquid nitrogen, homogenized in a glass homogenizer manufactured by the Wheaton company (U.S.A.) at +4°C in 10 volumes 0.05 M Tris-HCl buffer. […] Densitometry of the autoradiochromatograms obtained on the X-ray films X-Omat AR (Kodak, U.S.A.) and HS 11 (ORWO, Germany) were performed on the KS 3 densiscan (Kipp and Zonnen, Holland). Quantative analysis of individual eucosanoids was carried out using radiometry of the fractions obtained with high performance liquid chromatography (the Gilson company HPLC-system, France; the Du Pont company ZORBAX C8 column, U.S.A.) and with elution of spots on TLC-plates.

Assay [3] relates to Wistar rats. Description: Non-infectious pulmonary granulomatosis model (aerosol Sephadex A-25). The settings on record: intragastral 50 mg/kg once daily.
Protocol: Antiinflammatory and immunomodulating effect of the compound III with intragastral administration was studied on the non-infectious pulmonary granulomatosis model.
20 female 4 months old Wistar rats weighing 200-220 g were used in exepriment.
Sephadex A-25 at a dose 5 mg per 1 kg of body mass, as administered to rats under ether anesthesia using an original dosing device for inhalation administering dry powders manufactured at the Scientific-Research Institute for Medical Instrument-Making. […] Compound III was administered intragastrally using a gastric probe at a dose 50 mg per 1 kg of body mass and immediately after that, single aerosol administration of Sephadex A-25 was performed according to the earlier described technique. Then compound III was administered intragastrally once daily for 6 days at a dose 50 mg/kg of body mass in the form of water solution. Rats were examined by day 7 after commencement of administering compound III and Sephadex A-25.
Bronchoalveolar lavage was obtained under Hexenal anesthesia. Cytosis, i.e. absolute number of cells in 1 ml was determined in the bronchoalveolar lavage fluid. Endopulmonal cytogram (in percent) was calculated in the smears stained according to Romanovsky-Gimza. […] Histological examination of lungs stained with hematoxylin and eosine was performed. Volume density of alveolitis and emphysema was determined using the point count method.
In assay [4] the test system is mongrel guinea-pigs. The assay is described as follows: Food anaphylaxis (active anaphylactic shock) in OVA-sensitized guinea pigs. The settings on record: oral 3 days before provoking anaphylaxis, 50 µg/kg.
The test system of assay [5] is hepatic P-450 cytochrome system. The assay is described as follows: Hexenal sleep duration in guinea pigs. It is filed as in vivo. The conditions noted are these: oral 3 days, 50 µg/kg, control 24.76 ± 3.23. The protocol:
Change in Hexenal sleep (HS) duration is the in vivo measurable index of hepatic P-450 cytochrome system condition.
Studies were carried out on male mice of the lines BALB/c*h75, C57B1/6, CBA, DBA/2, first generation CBF1 and BDF1 hybrides, with initial mass 18-20 g, each group including 10 mice; and on mongrel male guinea pigs with initial mass 250-300 g, each group including 24 animals. All the test compounds (from II to LII) were administered orally in drinking water and for three days at doses 50 and 500 µg/kg. Hexenal hydrochloride at a dose […] of animal mass was administered 24 hours after the last drug administration, except for line BALB/c*h75 mice, which were administered Hexenal at a dose 60 µg/kg at the same terms, and guinea pigs for which Hexenal dose was 30 µg/kg. HS duration was determined in minutes.

For assay [6], the system named is encephalomyocarditis virus. Description: Protection of mice against encephalomyocarditis virus infection. It is filed as in vivo. The conditions noted are these: 100 LD50 virus, once intraperitoneally 24 hours after infection, 30 µg/kg. The protocol:
Studies ere carried out on mongrel mice of both sexes with initial body mass 10-11 g. The control and experimental groups included 30 animals each. Compound XLIV and the reference drug interferon inducer Ridostine were administered once intraperitoneally 24 hours after infection of mice with encephalomyocarditis virus at doses 30 µg/kg and 5.0 mg/kg, respectively. Encephalomyocarditis virus was administered at a dose 100 LD50. Antiviral activity was determined by change in mean lifetime (MLT) of mice and by the degree of protection against lethal viral infection.

Setting [7] is: Wistar rats, day 7 after aerosol Sephadex A-25.

`O=C(O)CCCC(=O)NCCc1c[nH]cn1` [compound III, N-GLUTARYLHISTAMINE]: the “Weight of years (g) left” value in assay [1] is 15.4 ± 1.12 g. Moreover, in assay [1] (mice, TCB, 1% ointment), the “Reaction inhibition (%)” value is recorded as 38% and the “weight increment” value came out at 4.9 ± 0.5 g. Also, in assay [2], the “5-HETE+HHT, percent of AA conversion” value was 13.64 ± 0.26% of AA conversion; the “6-keto-PGF1α, percent of AA conversion” value is given as 7.95 ± 0.28% of AA conversion; the “12-, 15-HETE, percent of AA conversion” value is on record as 23.82 ± 0.82% of AA conversion; the “PGE2, percent of AA conversion” value is reported as 3.07 ± 0.11% of AA conversion. In addition, in assay [2], the “PGF2α, percent of AA conversion” value is reported as 8.05 ± 0.15% of AA conversion; the “Phospholipids, percent of AA conversion” value is reported as 7.41 ± 0.25% of AA conversion; the “TXB2, percent of AA conversion” value is listed as 5.76 ± 0.24% of AA conversion; the “Unmetabolized AA, percent of AA conversion” value is on record as 15.32 ± 1.56% of AA conversion. In addition, in assay [3] (setting [7]), the “Volume density in percent: Alveolitis” value is 3.8±0.1% and 3.8 ± 1.0%; the “Volume density in percent: Emphysema” value amounted to 11.2±3.2%. For the same compound, in assay [3] (bronchoalveolar lavage, day 7), the “Cytosis (absolute number of cells in 1 ml)” value is on record as 0.169 ± 0.054, the “Endopulmonary cytogram in percent: Lymphocytes” value worked out at 7.6 ± 1.5%, the “Endopulmonary cytogram in percent: Macrophages” value came to 75.2 ± 4.5% and the “Endopulmonary cytogram in percent: Neutrophils” value was 16.8 ± 2.6%. Besides, the “Volume density of lymphoid follicles in percent” value in assay [3] (lymphoid tissue associated with bronchi, day 7) stood at 34.7 ± 10.3%. The Lethality in percent in assay [4] is 6.7** percent.

For γ-L-glutamylhistamine [compound XLIV], in assay [5], the “Hexenal sleep duration (minutes)” value was 13.48 ± 1.02* minutes. Further, in assay [6], the “MLT, days” value is on record as 12.5* days; the “Protection degree, percent” value is given as 17.0%; the “Survival rate, percent” value is 30.3* percent.
